Experimental data reported in ChEMBL document CHEMBL1201862, “PubChem BioAssay data set” (2004).
Calls of active or inactive are those of the source.

Legend:
[1] = target: T1, Tyrosine-protein phosphatase non-receptor type 22 (Homo sapiens, UniProt Q9Y2R2); test: SAR LYP1 Fluorescent Assay using OMFP substrate for In Vitro dose response studies - Set 3. [Related pubchem assays (depositor defined):AID1779, AID1784, AID2140, AID2686]; assay type: functional
T1 sequence (Q9Y2R2 whole entry): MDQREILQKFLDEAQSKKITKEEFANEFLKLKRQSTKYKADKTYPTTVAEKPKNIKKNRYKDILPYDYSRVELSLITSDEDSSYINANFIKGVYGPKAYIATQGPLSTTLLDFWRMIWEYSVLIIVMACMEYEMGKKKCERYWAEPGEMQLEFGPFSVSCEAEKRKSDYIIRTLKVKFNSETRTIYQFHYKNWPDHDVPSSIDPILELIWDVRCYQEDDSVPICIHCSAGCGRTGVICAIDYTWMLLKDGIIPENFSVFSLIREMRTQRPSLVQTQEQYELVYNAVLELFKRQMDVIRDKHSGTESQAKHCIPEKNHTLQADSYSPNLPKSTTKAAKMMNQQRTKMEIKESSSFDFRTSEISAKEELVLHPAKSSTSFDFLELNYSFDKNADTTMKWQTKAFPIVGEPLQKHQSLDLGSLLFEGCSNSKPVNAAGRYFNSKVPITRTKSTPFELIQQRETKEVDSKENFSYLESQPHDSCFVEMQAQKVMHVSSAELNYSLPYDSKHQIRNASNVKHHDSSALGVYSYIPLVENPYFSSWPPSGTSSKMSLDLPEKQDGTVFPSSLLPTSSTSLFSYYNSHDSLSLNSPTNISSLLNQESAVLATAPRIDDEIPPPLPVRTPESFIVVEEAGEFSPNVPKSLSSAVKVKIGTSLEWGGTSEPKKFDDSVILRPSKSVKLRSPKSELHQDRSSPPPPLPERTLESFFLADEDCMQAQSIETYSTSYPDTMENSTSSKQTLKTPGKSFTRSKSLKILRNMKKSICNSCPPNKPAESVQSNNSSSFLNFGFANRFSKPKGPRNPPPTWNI

[2] = target: T2, G-protein coupled receptor 35 (Homo sapiens, UniProt Q9HC97); test: SAR Analysis for the identification of Selective Antagonists of ERK1/2 Activity in GPR35-Overexpressing U2OS Cells. [Related pubchem assays: 2079, 2058 ]; assay type: functional, cell-based
T2 sequence (Q9HC97 whole entry): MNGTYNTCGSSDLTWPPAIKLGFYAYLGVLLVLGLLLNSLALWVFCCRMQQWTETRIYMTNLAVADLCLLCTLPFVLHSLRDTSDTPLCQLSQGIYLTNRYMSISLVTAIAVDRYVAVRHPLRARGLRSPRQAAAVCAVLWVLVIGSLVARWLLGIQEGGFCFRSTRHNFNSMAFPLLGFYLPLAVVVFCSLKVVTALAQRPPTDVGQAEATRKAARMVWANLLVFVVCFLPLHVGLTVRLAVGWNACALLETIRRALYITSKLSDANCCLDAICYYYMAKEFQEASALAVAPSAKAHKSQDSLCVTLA

[3] = target: T3, Tyrosine-protein phosphatase non-receptor type 7 (Homo sapiens, UniProt P35236); test: inhibition of hematopoietic tyrosine phosphatase HePTP – biochemical, set 2, SAR follow-up (AID 449736); assay type: functional
T3 sequence (P35236 whole entry): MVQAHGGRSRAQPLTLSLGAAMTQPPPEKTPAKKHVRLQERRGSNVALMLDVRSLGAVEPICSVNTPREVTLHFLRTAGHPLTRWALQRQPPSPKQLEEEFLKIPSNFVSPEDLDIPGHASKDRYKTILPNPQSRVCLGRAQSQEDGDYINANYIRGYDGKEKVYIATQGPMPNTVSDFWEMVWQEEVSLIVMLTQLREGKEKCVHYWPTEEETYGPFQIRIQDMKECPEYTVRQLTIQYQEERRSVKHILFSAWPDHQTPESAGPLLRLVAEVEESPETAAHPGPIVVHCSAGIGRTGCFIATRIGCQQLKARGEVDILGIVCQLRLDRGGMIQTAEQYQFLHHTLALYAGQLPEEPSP

[4] = target: G-protein coupled receptor 55 (Homo sapiens, UniProt Q9Y2T6); test: blockers of GPR55 signalling, imaged – imaging, image-based, counter-screen for GPR35 antagonist project, SAR follow-up (AID 2397); assay type: functional
G-protein coupled receptor 55, sequence (Q9Y2T6 whole entry): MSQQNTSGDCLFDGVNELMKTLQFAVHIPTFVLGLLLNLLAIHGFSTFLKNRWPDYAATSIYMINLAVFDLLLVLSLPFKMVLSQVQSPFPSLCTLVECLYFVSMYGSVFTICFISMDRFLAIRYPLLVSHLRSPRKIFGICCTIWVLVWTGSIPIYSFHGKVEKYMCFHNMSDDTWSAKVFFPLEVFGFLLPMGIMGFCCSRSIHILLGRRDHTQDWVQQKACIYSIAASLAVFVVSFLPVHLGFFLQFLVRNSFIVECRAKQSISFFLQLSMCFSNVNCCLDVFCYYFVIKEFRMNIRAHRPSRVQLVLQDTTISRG

[5] = target: T2, G-protein coupled receptor 35; test: inhibition of zaprinast-stimulated GPR35 beta-arrestin translocation – imaging, U2OS, beta-arrestin-GFP, zaprinast agonist, primary screen (AID 2058); assay type: functional;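 further: antagonist potency meaning inhibition of agonist-induced arrestin redistribution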
[6] = target: T4, Tyrosine-protein phosphatase non-receptor type 12 (Homo sapiens, UniProt Q05209); test: SAR Selectivity Analysis of small molecule inhibitors of PEST using pCAP in a fluorescence assay. [Related pubchem assays (depositor defined):AID1779, AID1784, AID2135]; assay type: functional
T4 sequence (Q05209 whole entry): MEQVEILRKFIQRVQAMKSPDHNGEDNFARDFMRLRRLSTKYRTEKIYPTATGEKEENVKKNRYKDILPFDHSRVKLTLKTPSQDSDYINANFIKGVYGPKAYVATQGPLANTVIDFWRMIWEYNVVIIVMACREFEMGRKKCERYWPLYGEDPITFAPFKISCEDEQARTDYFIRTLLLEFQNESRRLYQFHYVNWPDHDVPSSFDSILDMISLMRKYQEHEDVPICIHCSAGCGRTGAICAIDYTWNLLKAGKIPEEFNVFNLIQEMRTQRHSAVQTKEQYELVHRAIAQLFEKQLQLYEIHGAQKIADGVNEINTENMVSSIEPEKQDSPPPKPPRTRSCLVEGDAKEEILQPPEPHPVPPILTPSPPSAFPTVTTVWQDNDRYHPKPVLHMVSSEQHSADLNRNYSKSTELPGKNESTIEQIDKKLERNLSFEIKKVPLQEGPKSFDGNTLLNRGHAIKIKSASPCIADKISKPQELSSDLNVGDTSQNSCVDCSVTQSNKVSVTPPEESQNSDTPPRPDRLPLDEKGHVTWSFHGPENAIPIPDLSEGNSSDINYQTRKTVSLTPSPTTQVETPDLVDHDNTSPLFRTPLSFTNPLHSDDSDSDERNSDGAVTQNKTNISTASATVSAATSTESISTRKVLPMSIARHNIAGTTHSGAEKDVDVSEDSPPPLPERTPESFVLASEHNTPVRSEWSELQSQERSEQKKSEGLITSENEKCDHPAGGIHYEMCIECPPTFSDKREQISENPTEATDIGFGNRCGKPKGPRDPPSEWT

[7] = target: T1, Tyrosine-protein phosphatase non-receptor type 22; test: inhibition of lymphoid tyrosine phosphatase LYP – biochemical, pCAP fluorogenic substrate, fluorescence, set 3, SAR follow-up (AID 449727); assay type: functional
[8] = target: T5, Delta-type opioid receptor (Homo sapiens, UniProt P41143); test: HTS Image-Based Screen for Antagonists of the DOR Receptor. [Related pubchem assays (depositor defined):AID1777, AID1785, AID1786, AID2133]; assay type: functional
T5 sequence (P41143 whole entry): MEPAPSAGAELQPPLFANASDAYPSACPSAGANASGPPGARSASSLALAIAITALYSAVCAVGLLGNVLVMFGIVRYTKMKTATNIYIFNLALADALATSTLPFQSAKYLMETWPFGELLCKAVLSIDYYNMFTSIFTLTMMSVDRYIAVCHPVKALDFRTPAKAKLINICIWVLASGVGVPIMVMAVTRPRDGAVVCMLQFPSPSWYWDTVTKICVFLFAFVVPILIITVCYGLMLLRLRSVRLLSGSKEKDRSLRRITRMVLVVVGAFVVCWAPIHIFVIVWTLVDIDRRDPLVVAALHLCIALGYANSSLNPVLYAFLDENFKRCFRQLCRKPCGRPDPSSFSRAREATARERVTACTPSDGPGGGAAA

[9] = target: T6, Kappa-type opioid receptor (Homo sapiens, UniProt P41145); assay type: functional
T6 sequence (P41145 whole entry): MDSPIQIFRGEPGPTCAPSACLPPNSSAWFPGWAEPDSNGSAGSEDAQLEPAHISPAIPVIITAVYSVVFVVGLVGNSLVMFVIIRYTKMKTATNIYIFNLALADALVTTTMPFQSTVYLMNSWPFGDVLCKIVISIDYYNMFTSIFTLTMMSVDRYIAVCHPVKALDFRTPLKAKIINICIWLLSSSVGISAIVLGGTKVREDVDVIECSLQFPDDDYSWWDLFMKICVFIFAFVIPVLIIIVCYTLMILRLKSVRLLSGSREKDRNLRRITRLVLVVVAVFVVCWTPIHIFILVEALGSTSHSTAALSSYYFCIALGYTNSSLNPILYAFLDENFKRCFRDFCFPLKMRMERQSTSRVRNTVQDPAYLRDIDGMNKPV

Mu-type opioid receptor [10] = target: T7, Mu-type opioid receptor (Homo sapiens, UniProt P35372); test: mu opioid receptor blockers – image-based, SAR follow-up (AID 2420); assay type: functional;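 further: compounds added before stimulation of receptor with agonist DAMGO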
T7 sequence (P35372 whole entry): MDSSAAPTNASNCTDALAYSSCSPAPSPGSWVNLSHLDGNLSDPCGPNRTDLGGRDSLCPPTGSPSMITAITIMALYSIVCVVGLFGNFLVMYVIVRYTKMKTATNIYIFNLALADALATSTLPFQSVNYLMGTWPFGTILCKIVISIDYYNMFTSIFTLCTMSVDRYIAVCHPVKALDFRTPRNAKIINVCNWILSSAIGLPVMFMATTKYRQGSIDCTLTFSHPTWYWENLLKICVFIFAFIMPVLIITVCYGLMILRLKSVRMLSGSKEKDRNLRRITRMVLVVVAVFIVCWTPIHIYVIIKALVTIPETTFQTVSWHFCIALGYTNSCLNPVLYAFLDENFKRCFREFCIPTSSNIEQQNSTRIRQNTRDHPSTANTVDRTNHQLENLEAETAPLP

[11] = target: T6, Kappa-type opioid receptor; test: SAR analysis of small molecule agonists of the kappa opioid receptor via a luminescent beta-arrestin assay. [Related pubchem assays (depositor defined):AID1777, AID1786, AID1966, AID2133, AID2136, AID2348, AID2352, AID2357, AID2359, AID2370, AID2420, AID2478, AID2491, AID2492, AID2493, AID2497, AID2498, AID2500, AID449737, AID488822, AID488842]; assay type: functional
[12] = target: T5, Delta-type opioid receptor; test: HTS Image-Based Screen for Agonists of the DOR Receptor. [Related pubchem assays (depositor defined):AID1777, AID1786, AID2133]; assay type: functional
Mu-type opioid receptor [13] = target: T7, Mu-type opioid receptor; test: mu opioid receptor activators, image-based, SAR follow-up (AID 2352); assay type: functional
[14] = target: T6, Kappa-type opioid receptor; test: kappa opioid receptor activation potency – imaging, image-based, SAR follow-up (AID 2359); assay type: functional
[15] = target: T6, Kappa-type opioid receptor; test: kappa opioid receptor blockers, image-based, SAR follow-up (AID 2348); assay type: functional
[16] = target: T5, Delta-type opioid receptor; test: delta opioid receptor blockers – image-based, SAR follow-up (AID 2357); assay type: functional
Mu-type opioid receptor [17] = target: T7, Mu-type opioid receptor; test: HTS Image-Based Screen for Agonists of the MOR Receptor. [Related pubchem assays (depositor defined):AID1777, AID1785, AID1786, AID2133]; assay type: functional
[18] = target: T5, Delta-type opioid receptor; test: DOR agonists, SAR follow-up, image-based (AID 2370); assay type: functional
[19] = target: T6, Kappa-type opioid receptor; assay type: functional; remark: listed apart in the source

O=C(CCCN1C(=O)/C(=C\c2ccccc2)SC1=S)Nc1ccc(C(=O)O)cc1 was tested, and the IC50 [1] was 72.2 µM (active), the IC50 [2] was 3.29 µM (active) and the IC50 [3] was 1.89 µM (active). For the same compound, the IC50 [4] was > 32 µM (inactive), the IC50 [5] was 1.16 µM (active) and the IC50 [6] was 15.8 µM (active). The IC50 [7] was 79.5 µM (active).
CCCCN(Cc1cc2ccccc2nc1O)C(=O)c1ccccn1 was tested, and the IC50 [8] was > 32 µM (inactive), the EC50 [9] was 3.16 µM and the IC50 (Mu-type opioid receptor [10]) was > 32 µM (inactive). For the same compound, the EC50 [11] was 8.1 µM (active), the EC50 [12] was > 32 µM (inactive) and the EC50 (Mu-type opioid receptor [13]) was > 32 µM (inactive). For the same compound, the EC50 [14] was 5.31 µM (active), the IC50 [15] was > 32 µM (inactive) and the IC50 [16] was > 32 µM (inactive). The EC50 (Mu-type opioid receptor [17]) was > 32 µM (inactive), the EC50 [18] was > 32 µM (inactive) and the EC50 [19] was 4.27 µM.
